Reference: patent publication US20050107611A1, “Pyrazolyl-substituted triazoloquinoxalines” (priority 2001, published 2005)

Experiments:
[1] = target: A2A adenosine receptor (Rattus norvegicus, UniProt P30543); test: Receptor binding assay with [3H]MSX-2 on A2A-adenosine receptors; set-up: tissue Pel Freez Company (Rogers, Ark., USA); host or cells: rat brain striatum membranes; settings: for Ki: Table 2, [3H]MSX-2, read-out: A2A K1
From the text: (§1) The data of the biological tests that are cited below results from radioligand-binding assays on A1, A2A, A2B and A3 adenosine receptors (ARs).
(§2) The following selective radioligands are used in the biological tests: • [^3H]CCPA (for A1 ARs) [Klotz et al., Naunyn-Schmiedeberg's Arch. Pharmacol., 340, 679 (1989)] • [^3]MSX-2 (for A2A ARs) [Muiller et al., Eur. J. Pharm. Sci., 10, 259 (2000)] • [^3H]ZM241385 (for A2B ARs_[X.-D. Ji, K. A. Jacobson, Drug Des. Discov., 16, 217 (1999)] • [^3H]PSB-11 (new antagonistic radioligand for human A3 ARs) [M. Dieckmann, M. Thorand, V. Ozola, C. E. Muiller, in Vorbereitung [Preparation] (2001)]. • [^125I]AB-MECA (for rat-A3 ARs) [Olah et al., Mol. Pharmacol., 45, 978 (1994)]. Description of the Assays That are Used for Testing Substances Production of Tissue Preparations Made from Rat Brains
The cell decomposing of the cerebral cortex is carried out with a glass-Teflon homogenizer (stages 5-6, 10 seconds) in 0.32 M saccharose solution. The membranes are purified over various centrifuging steps. With centrifuging at 600 g, 4° C., for 10 minutes, a large amount of cell debris is separated via the P1 fraction, and the supernatant (P2 fraction) is further worked up: in the subsequent three centrifuging steps (35,000 g; 4° C.; 60 minutes), a pellet is produced that is resuspended in 50 mmol of TRIS buffer, pH 7.4 with the Ultraturrax (stages 3-4, 3 seconds); the respective supernatant is discarded. The striata are added to cold TRIS buffer, homogenized with the Ultraturrax in stages 3 to 4-(3 seconds) and then centrifuged at 35,000 g, 4° C., for 20 minutes. The supernatant is discarded, and the pellet is resuspended in 50 mmol of TRIS buffer (50 mmol, pH 7.4). The washing process is repeated twice more. The membrane preparations are stored at −80° C. and are held for several months. The cerebral cortex membrane preparation is used for A1-radioligand binding studies, and the striatum is used for A2A-radiologiand binding studies.
(§3) The test substances are dissolved in DMSO to 10 mmol. The final concentration of DMSO in the assay is 2.5% for A1- and A2A-adenosine receptor assays and 1-2% for A2B- and A3-assays. Dilution series of the test substances are produced from the stock solution. Five to eight different test concentrations, which comprise 3 orders of magnitude (e.g., 1 nm to 1000 nm), are used.
Receptor Binding Assay with [^3H]MSX-2 on A2A-Adenosine Receptors:
• 25 μl of DMSO, NECA (800 μmol) or test substance dilutions • 775 μl of TRIS buffer (for production, see above) • 100 μl of [^3H]MSX-2 (final concentration 1 nmol; KD value 8 nmol) • 100 μl of rat-striatum-membrane preparation or preparation of CHO cells, which express the human A2A receptor, incubated with 0.12 IE adenosine-deaminase (protein concentration: 25-75 μg/ml) • 1000 μl of final volume
The assay is performed according to the instructions of the receptor-binding assay with [^3H]CCPA with consideration of the amounts and solutions that are listed above. The incubation time is 30 minutes at 23° C. in an oscillating water bath. The glass fiber filter is introduced 30 minutes before use in 0.5% PEI solution.
(§4) The mean value is calculated from three independent experiments. IC50 and K, values are obtained from the Cheng-Prusoff equation, the concentration and the KD value of the radioligand. For calculation, the program GraphPadPrism™, Version 3.0 (GraphPad, San Diego, Calif., USA), was used.

[2] = target: T1, human A2B-receptor (Homo sapiens, UniProt P29275); test: Receptor binding assay with [3H]ZM241385 on recombinant A2B-adenosine receptors in HEK cells; settings: for Ki: Table 2, [3H]ZM241385, read-out: A2B K1
T1 construct: purchased Receptor Biology USA via Perkin Elmer Life Sciences, Cologne, Germany; host or cells: HEK cells (membranes)
T1 sequence (P29275 1-332): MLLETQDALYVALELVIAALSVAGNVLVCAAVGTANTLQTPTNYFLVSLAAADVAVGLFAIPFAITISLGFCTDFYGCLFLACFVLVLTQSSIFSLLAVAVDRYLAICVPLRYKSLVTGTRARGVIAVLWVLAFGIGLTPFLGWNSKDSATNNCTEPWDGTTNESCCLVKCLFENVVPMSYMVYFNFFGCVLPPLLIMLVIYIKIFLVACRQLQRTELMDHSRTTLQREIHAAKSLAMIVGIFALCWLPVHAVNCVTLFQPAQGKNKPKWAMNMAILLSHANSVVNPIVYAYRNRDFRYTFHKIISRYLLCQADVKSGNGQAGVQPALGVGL
From the text: as §1, §2
In addition, A28-adenosine receptor membranes are prepared, whereby, for example, finished prepared membranes of HEK cells, which express the human A2B-receptor in high density (about 4 pmol/mg of protein), were available commercially (Receptor Biology USA via Perkin Elmer Life Sciences, Cologne, Germany).
as §3, with “used. […]” for “used.”
as §4

Chain of A2A adenosine receptor (P30543 whole entry): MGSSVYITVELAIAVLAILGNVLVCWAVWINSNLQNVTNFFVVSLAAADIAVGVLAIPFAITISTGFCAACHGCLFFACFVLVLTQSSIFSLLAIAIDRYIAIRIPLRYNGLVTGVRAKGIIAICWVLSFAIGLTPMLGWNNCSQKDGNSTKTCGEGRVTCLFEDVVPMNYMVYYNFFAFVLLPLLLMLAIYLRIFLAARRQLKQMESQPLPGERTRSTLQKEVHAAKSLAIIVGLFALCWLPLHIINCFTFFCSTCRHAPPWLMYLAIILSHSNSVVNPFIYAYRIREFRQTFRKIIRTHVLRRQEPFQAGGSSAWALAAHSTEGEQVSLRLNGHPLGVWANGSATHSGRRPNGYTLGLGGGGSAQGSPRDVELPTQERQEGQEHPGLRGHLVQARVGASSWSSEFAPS

Compound | Ki [1] [µM] | A2B % inhib. @ 1 μmol [2] | Ki [2] [µM] | A2A % inhib. @ 10 μmol [1]
4-(chloropyrazolyl)-1-(3-phenylpropyl)-[1,2,4-]triazolo[4,3-a]quinoxaline [Y = C—CH2—CH2—CH2-Ph, R5 = H, R6 = Cl] | > 10 | (18%) | > 1 | (6%)
COc1ccc2c(c1)nc(-c1cc(Cl)[nH]n1)c1nncn12 [Y = C—H, R3 = OCH3, R5 = H, R6 = Cl, 4-[3(5)-Chloro-1H-pyrazol-5(3)-yl]-7-methoxy-[1,2,4]triazolo[4,3-a]-quinoxaline] | > 10 | (8%) | > 1 | (1%)
Clc1cc(-c2nc3ccccc3n3cnnc23)[nH]n1 [Y = C—H, R5 = H, R6 = Cl] | > 10 | (0%) | > 1 | (21%)
Clc1cc(-c2nc3ccccc3n3nnnc23)n[nH]1 [Y = N, R5 = H, R6 = Cl, 4-[3(5)-Chloro-1H-pyrazol-5(3)-yl]tetrazolo[1,5-a]quinoxaline] | 6.13 | (13%) | > 1 | –

Continued, in another order:

Ki [1] [µM] | A2B % inhib. @ 1 μmol [2] | Ki [2] [µM] | Compound | A2A % inhib. @ 10 μmol [1]
4.96 | (0%) | > 1 | COc1ccc2c(c1)nc(-c1cc(Cl)n[nH]1)c1nnc(Cc3cccs3)n12 [4-[3(5)-Chloro-1H-pyrazol-5(3)-yl]-7-methoxy-1-(2-thienylmethyl)-[1,2,4]triazolo[4,3-a]-quinoxaline] | –
1.26 | (25%) | > 1 | Clc1cc(-c2nc3ccccc3n3c(-c4ccoc4)nnc23)n[nH]1 [Y = C-(3-Furyl), R5 = H, R6 = Cl] | –
8.61 | (22%) | > 1 | Cn1nc(-c2nc3ccccc3n3c(Cc4cccs4)nnc23)cc1Cl [Y = C—CH2-(2-Thienyl), R5 = CH3, R6 = Cl, 4-(5-Chloro-1H-1-methyl-pyrazol-3-yl)-1-(2-thienylmethyl)-[1,2,4]triazolo[4,3-a]-quinoxaline] | –
